How the values were obtained:
Abeta 1-38 = details: 20 mg/kg, 24 h
Method: (§2) Single Dose Pharmacology in the Beagle Dog
(§3) Compound 86 was tested to evaluate the effect on the beta-amyloid profile in cerebrospinal fluid (CSF) of dogs after a single dose, in combination with pharmacokinetic (PK) follow up and limited safety evaluation. 6 Beagle dogs (3 male, 3 female) were dosed with vehicle (4 ml/kg of an aqueous suspension of 20% cyclodextrin and Tween) and 6 Beagle dogs (3 male, 3 female) were dosed with compound 86 (20 mg/kg in 2 ml/kg of an aqueous 20% cyclodextrin solution) on an empty stomach. CSF was taken in conscious animals directly from the lateral ventricle via a cannula which was screwed in the skull and covered with subcutaneous tissue and skin, before and at 4, 8 and 24 hours after dosing. 8 Hours after dosing the animals got access to their regular meal for 30 minutes. Blood was taken for PK follow up (0.5, 1, 2, 4, 8 and 24 hours) and at the time of the CSF sampling, samples for serum analysis were taken. An additional sample for serum analysis was taken 10 days after dosing. The CSF samples were used for measurement of Abeta 1-37, Abeta 1-38, Abeta 1-40 and Abeta 1-42.

Abeta total = assay: Cellular αLisa assay in SKNBE2 cells, Abeta total; type: cell-based, human; details: Homo sapiens, SKNBE2, 18 h, incubated for 18 hours, read-out: Cellular αLisa assay in SKNBE2 cells Abetatotal pIC50 (converted)
In short: (§1)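 Secreted Abeta levels were measured by sandwich αLisa, pairing biotin-AbN/25 donor beads with Ab4G8 acceptor beads for total Abeta or cAb42/26 for Abeta 1-42, read at 615 nm after 650 nm excitation following 1 hour. Cells were SKNBE2 expressing wild-type hAPP695, exposed to compound for 18 hours.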

Abeta 1-40 = details: 20 mg/kg, 24 h
Method: as §2, §3

Aβ42 = assay: Demonstration of in vivo efficacy, brain Aβ42 lowering (ELISA); details: mouse brain, 30 mpk, s.c., 4 h
Excerpt: To determine whether acute administration of an Aβ42 peptide lowering agent would reduce Aβ peptide levels in vivo, non-transgenic rodents, e.g. mice or rats were used. Animals treated with the Aβ peptide lowering agent were examined and compared to those untreated or treated with vehicle and brain levels of soluble Aβ42 and total Aβ were quantitated by standard techniques, for example, using ELISA.
A typical protocol for measuring Aβ42 lowering in vivo is shown but it is only one of many variations that could be used to optimize the levels of detectable Aβ. For example, Aβ peptide lowering compounds were formulated in 20% hydroxypropyl 3 cyclodextrin. The Aβ peptide lowering agents were administered as a single oral dose (p.o.) or a single subcutaneous dose (s.c.) to overnight fasted animals. After a certain time, usually 2 or 4 h (as indicated in Table 19), the animals were sacrificed and Aβ42 levels were analysed.
Blood was collected by decapitation and exsanguinations in EDTA-treated collection tubes. Blood was centrifuged at 1900 g for 10 minutes (min) at 4° C. and the plasma recovered and flash frozen for later analysis. The brain was removed from the cranium and hindbrain. The cerebellum was removed and the left and right hemisphere were separated. The left hemisphere was stored at −18° C. for quantitative analysis of test compound levels. The right hemisphere was rinsed with phosphate-buffered saline (PBS) buffer and immediately frozen on dry ice and stored at −80° C. until homogenization for biochemical assays.
Mouse brains from non-transgenic animals were resuspended in 8 volumes of 0.4% DEA (diethylamine)/50 mM NaCl containing protease inhibitors (Roche-11873580001 or 04693159001) per gram of tissue, e.g. for 0.158 g brain, add 1.264 ml of 0.4% DEA. All samples were homogenized in the FastPrep-24 system (MP Biomedicals) using lysing matrix D (MPBio #6913-100) at 6 m/s for 20 seconds. Homogenates were centrifuged at 221.300×g for 50 min. The resulting high speed supernatants were then transferred to fresh eppendorf tubes. Nine parts of supernatant were neutralized with 1 part 0.5 M Tris-HCl pH 6.8 and used to quantify Aβtotal and Aβ42.
To quantify the amount of Aβtotal and Aβ42 in the soluble fraction of the brain homogenates, Enzyme-Linked-Immunosorbent-Assays were used. Briefly, the standards (a dilution of synthetic Aβ1-40 and Aβ1-42, Bachem) were prepared in 1.5 ml Eppendorf tube in Ultraculture, with final concentrations ranging from 10000 to 0.3 pg/ml. The samples and standards were co-incubated with HRPO-labelled N-terminal antibody for Aβ42 detection and with the biotinylated mid-domain antibody 4G8 for Aβtotal detection. […] The plate was allowed to incubate overnight at 4° C. in order to allow formation of the antibody-amyloid complex. Following this incubation and subsequent wash steps the ELISA for Aβ42 quantification was finished by addition of Quanta Blu fluorogenic peroxidase substrate according to the manufacturer's instructions (Pierce Corp., Rockford, Ill.). A reading was performed after 10 to 15 min (excitation 320 nm/emission 420 nm).

[1] = biological target: recombinant BACE1 protein (Homo sapiens, UniProt P56817); assay: Biochemical FRET based assay; details: recombinant BACE1 1 μg/ml, 120 minutes at room temperature, pH 5.0; read-out: Biochemical FRET based assay pIC50 (converted)
Sequence of recombinant BACE1 protein (P56817 46-501): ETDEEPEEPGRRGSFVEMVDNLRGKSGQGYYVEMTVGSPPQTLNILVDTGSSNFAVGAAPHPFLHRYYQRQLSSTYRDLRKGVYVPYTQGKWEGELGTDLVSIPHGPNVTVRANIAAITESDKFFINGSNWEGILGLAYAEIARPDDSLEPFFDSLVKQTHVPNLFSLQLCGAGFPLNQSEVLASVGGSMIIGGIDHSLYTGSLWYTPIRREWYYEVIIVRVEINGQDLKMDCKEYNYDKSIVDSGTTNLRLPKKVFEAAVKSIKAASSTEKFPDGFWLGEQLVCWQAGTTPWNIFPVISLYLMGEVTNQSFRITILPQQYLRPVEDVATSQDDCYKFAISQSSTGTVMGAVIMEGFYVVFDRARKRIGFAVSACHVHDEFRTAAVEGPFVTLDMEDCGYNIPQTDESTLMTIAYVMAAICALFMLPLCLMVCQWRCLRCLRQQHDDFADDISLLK
In short: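 Proteolysis was read as the rise in donor fluorescence (320 nm excitation, 405 nm emission) from T0 to T120, expressed in RFU. The reaction ran 120 minutes at room temperature at pH 5.0 in citrate buffer with 4% DMSO, using […] quenched Swedish APP peptide and 1 μg/ml BACE1.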

Abeta 1-42 [2] = assay: Cellular αLisa assay in SKNBE2 cells, Abeta 1-42; type: cell-based, human; details: Homo sapiens, SKNBE2, 18 h, incubated for 18 hours, read-out: Cellular αLisa assay in SKNBE2 cells Abeta 42 pIC50 (converted)
In short: as §1

Abeta 1-42 [3] = details: 20 mg/kg, 24 h
Method: as §2, §3

IC50 (Abeta total): 6.17 nM
IC50 [1]: 38.9 nM
IC50 (Abeta 1-42 [2]): 6.92 nM
Structure (SMILES): C[C@]1(c2cccc(NC(=O)c3ccc(Cl)cn3)c2)N=C(N)CO[C@@H]1F (single isomer, unassigned) [Compound 86, (R*,R*)—N-[3-(5-amino-2-fluoro-3-methyl-3,6-dihydro-2H-1,4-oxazin-3-yl)phenyl]-5-chloropyridine-2-carboxamide]
decrease in Abeta 1-38 in CSF compared to own baseline (Abeta 1-38): > 90%
decrease in Abeta 1-40 in CSF compared to own baseline (Abeta 1-40): > 90%
Aβ42 (% Ctrl)_Mean (Aβ42): 60 % Ctrl
decrease in Abeta 1-42 in CSF compared to own baseline (Abeta 1-42 [3]): > 90%

— US9828350B2, “5,6-dihydro-2H-[1,4]oxazin-3-yl-amine derivatives useful as inhibitors of beta-secretase (BACE)” (Janssen Pharmaceutica NV, priority 2010, dated 2017)
